One assay addresses T1, DGKα (Homo sapiens, UniProt P23743).
T1 construct: His; purchased Signal Chem D21-10BH
The assay can be described thus: In vitro DGKα inhibition assay (ADP-Glo). It is filed as biochemical. The note with it: His-tagged human recombinant DGKα 0.1 nM, 50 μM ATP, 20 μM DLG, 90 minute incubation. As for the experimental part:
(§1) The DGKα and DGKζ biochemical reactions were performed using His-tagged human recombinant enzymes (Signal Chem, DGKα, #D21-10BH; DGKζ, #D30-10H)) and DLG (Dilauroyl-sn-glycerol) lipid substrate (Signal Chem, #D430-59). ADP-Glo assay was performed using ADP-Glom kinase Assay kit (Promega, #V9104). The reactions were carried out in assay buffer containing 40 mM Tris, pH 7.5, 0.1% CHAPS, 0.1% Prionex, 40 mM NaCl, 5 mM MgCl2, 1 mM CaCl2), and 1 mM DTT. DGKα reactions contained 0.1 nM DGKα, 50 μM ATP, and 20 μM DLG. And DGKζ reactions contained 0.4 nM DGKζ, 30 μM ATP, and 20 μM DLG.
(§2) For compound inhibition studies, 40 nL test compound in DMSO was added to wells of white polystyrene plates in 384-well (Greiner, #784075) or 1536-well format (Greiner, #782075). Compounds were added with top concentration of 2 mM with 11 point, 3-fold dilution series. Enzyme solution (contains 2×DGK enzyme concentration in 1× assay buffer) was added to the plate in 2 μL/well volume, followed by 2 μL/well of substrate solution (contains 2× concentration of ATP and DLG substrate in 1× assay buffer). Plates were then centrifuged for 1 min at 1200 RPM and sealed or lidded. For 4 μL reaction volume, test compounds were therefore diluted 100× to final top concentration of 20 μM. After 90 minute incubation, reactions were quenched by addition of 2 μL/well Promega ADP-Glo Reagent, followed by centrifugation and lidding. After 60 min incubation, 2 μL/well Promega Kinase Detection Reagent was added, plates centrifuged, and incubated for 30 min. Plates were then read using Luminescence method on BMG PHERAstar FSX plate reader. Percent inhibition was calculated and IC50s were determined using 4-parameter fit in Genedata Screener. Labcyte Echo acoustic dispenser was used for compound addition, and Formulatrix Tempest liquid handler was used for all reagent dispenses.
On the technique in general: ADP-Glo turns the ADP formed in a reaction into a luminescent signal.

A further assay addresses T2, DGKζ (Homo sapiens, UniProt Q13574).
T2 construct: His; purchased Signal Chem D30-10H
In words: In vitro DGKζ inhibition assay (ADP-Glo). It is filed as biochemical. The note with it: His-tagged human recombinant DGKζ 0.4 nM, 30 μM ATP, 20 μM DLG, 90 minute incubation. As to the method: as §1, §2

The values below come from US12600723B2, “Tetracyclic compounds as DGK inhibitors” (Incyte Corporation, priority 2022, dated 2026).

One may read the IC50 as the point on the concentration scale where inhibition reaches its midpoint.

T1 sequence (P23743 whole entry): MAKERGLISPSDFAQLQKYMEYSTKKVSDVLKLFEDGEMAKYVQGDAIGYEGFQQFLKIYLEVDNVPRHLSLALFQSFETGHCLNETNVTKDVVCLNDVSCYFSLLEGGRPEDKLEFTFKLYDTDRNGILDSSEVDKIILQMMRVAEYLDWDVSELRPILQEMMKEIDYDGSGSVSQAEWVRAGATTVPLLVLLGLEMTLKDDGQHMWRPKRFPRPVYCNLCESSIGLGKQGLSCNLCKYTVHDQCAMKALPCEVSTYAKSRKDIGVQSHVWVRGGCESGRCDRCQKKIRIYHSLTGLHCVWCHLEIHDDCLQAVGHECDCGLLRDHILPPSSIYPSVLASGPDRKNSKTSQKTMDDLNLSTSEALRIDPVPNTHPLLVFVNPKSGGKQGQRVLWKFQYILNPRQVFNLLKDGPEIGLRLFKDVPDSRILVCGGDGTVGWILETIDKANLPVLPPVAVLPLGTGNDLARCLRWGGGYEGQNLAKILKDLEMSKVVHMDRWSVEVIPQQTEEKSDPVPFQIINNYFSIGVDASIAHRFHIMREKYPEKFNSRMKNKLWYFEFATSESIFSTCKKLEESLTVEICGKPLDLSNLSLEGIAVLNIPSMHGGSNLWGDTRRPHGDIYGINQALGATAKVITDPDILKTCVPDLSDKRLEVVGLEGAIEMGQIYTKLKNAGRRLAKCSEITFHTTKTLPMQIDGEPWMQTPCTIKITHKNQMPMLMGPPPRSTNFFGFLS
T2 sequence (Q13574 whole entry): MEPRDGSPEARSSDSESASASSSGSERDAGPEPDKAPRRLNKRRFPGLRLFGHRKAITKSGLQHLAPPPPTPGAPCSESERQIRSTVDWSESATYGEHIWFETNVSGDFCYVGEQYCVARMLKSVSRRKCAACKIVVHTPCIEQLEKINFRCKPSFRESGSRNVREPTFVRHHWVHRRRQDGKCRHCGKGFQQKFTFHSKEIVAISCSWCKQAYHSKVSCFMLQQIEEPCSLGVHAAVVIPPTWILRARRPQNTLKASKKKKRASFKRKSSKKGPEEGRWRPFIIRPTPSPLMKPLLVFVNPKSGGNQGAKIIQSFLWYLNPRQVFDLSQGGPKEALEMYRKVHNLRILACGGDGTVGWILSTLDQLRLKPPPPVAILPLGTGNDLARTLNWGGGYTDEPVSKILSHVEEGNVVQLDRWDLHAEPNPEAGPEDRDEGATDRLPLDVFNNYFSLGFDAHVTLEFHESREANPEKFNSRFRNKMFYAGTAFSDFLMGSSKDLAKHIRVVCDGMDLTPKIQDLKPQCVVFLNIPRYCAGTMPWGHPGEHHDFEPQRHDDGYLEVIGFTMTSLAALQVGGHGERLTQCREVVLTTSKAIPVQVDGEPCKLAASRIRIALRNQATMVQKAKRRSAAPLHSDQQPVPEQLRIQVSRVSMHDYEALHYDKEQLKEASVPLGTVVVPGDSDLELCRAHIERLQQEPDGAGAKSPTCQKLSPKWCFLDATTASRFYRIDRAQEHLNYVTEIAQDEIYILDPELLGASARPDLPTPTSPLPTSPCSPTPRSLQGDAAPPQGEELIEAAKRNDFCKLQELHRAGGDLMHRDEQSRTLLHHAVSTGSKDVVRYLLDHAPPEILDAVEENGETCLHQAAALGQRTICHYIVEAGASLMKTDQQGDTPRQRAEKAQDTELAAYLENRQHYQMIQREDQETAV

Turning to `COc1ccc2c(n1)c1c(c(=O)n2C)N(C)C(=O)[C@H]2CN(C(c3ccc(F)cc3)c3ccc(F)cc3)[C@H](C)CN12` [Example 7, (8aR,11R)-10-(Bis(4-fluorophenyl)methyl)-2-methoxy-5,7,11-trimethyl-5,7,9,10,11,12-hexahydro-6H-pyrazino[1′,2′:4,5]pyrazino[2,3-c][1,5]naphthyridine-6,8(8aH)-dione], the IC50 was at most 40 nM at DGKα and above 2000 nM on DGKζ.

In the case of `C[C@@H]1CN2c3c(c(=O)n(C)c4ccc(F)nc34)N(C)C(=O)[C@H]2CN1C(c1ccc(F)cc1)c1ccc(F)cc1` [Example 4, (8aR,11R)-10-(Bis(4-fluorophenyl)methyl)-2-fluoro-5,7,11-trimethyl-5,7,9,10,11,12-hexahydro-6H-pyrazino[1′,2′:4,5]pyrazino[2,3-c][1,5]naphthyridine-6,8(8aH)-dione], the concentration for half-maximal inhibition (IC50) was at most 40 nM on DGKα and 200 to 2000 nM at DGKζ.

In the case of `C[C@@H]1CN2c3c(c(=O)n(C)c4ccc(=O)[nH]c34)N(C)C(=O)[C@H]2CN1C(c1ccc(F)cc1)c1ccc(F)cc1` [Example 9, (8aR,11R)-10-(Bis(4-fluorophenyl)methyl)-5,7,11-trimethyl-5,7,9,10,11,12-hexahydro-1H-pyrazino[1′,2′:4,5]pyrazino[2,3-c][1,5]naphthyridine-2,6,8(8aH)-trione], the 50% inhibitory concentration (IC50) at DGKα was at most 40 nM; on DGKζ, above 2000 nM.

In the case of `C[C@@H]1CN2c3c(c(=O)n(C)c4ccccc34)N(C)C(=O)[C@H]2CN1C(c1ccc(F)cc1)c1ccc(F)cc1` [Example 3, (2R,4aR)-3-(Bis(4-fluorophenyl)methyl)-2,6,8-trimethyl-2,3,4,4a,6,8-hexahydro-1H-pyrazino[1′,2′:4,5]pyrazino[2,3-c]quinoline-5,7-dione], the IC50 on DGKα was at most 40 nM; at DGKζ, above 2000 nM.

On to `C[C@@H]1CN2c3c(c(=O)n(C)c4ccc(C#N)nc34)N(C)C(=O)[C@H]2CN1C(c1ccc(F)cc1)c1ccc(F)cc1` [Example 1, (8aR,11R)-10-(Bis(4-fluorophenyl)methyl)-5,7,11-trimethyl-6,8-dioxo-5,7,8,8a,9,10,11,12-octahydro-6H-pyrazino[1′,2′:4,5]pyrazino[2,3-c][1,5]naphthyridine-2-carbonitrile], for which the concentration for half-maximal inhibition (IC50) was at most 40 nM on DGKα and 200 to 2000 nM on DGKζ.

Regarding `C[C@@H]1CN2c3c(c(=O)n(C)c4ccc(-c5cnn(C)c5)nc34)N(C)C(=O)[C@H]2CN1C(c1ccc(F)cc1)c1ccc(F)cc1` [Example 8, (8aR,11R)-10-(Bis(4-fluorophenyl)methyl)-5,7,11-trimethyl-2-(1-methyl-1H-pyrazol-4-yl)-5,7,9,10,11,12-hexahydro-6H-pyrazino[1′,2′:4,5]pyrazino[2,3-c][1,5]naphthyridine-6,8(8aH)-dione], the half-maximal inhibitory concentration (IC50) is at most 40 nM on DGKα and above 2000 nM on DGKζ.

Take `COCCN1C(=O)[C@H]2CN(C(c3ccc(F)cc3)c3ccc(F)cc3)[C@H](C)CN2c2c1c(=O)n(C)c1ccc(C#N)nc21` [Example 2, (8aR,11R)-10-(Bis(4-fluorophenyl)methyl)-7-(2-methoxyethyl)-5,11-dimethyl-6,8-dioxo-5,7,8,8a,9,10,11,12-octahydro-6H-pyrazino[1′,2′:4,5]pyrazino[2,3-c][1,5]naphthyridine-2-carbonitrile]: the results for the half-maximal inhibitory concentration (IC50) on DGKα and at DGKζ were 40 to 200 nM and 200 to 2000 nM, respectively.

`C[C@@H]1CN2c3c(c(=O)n(C)c4ccc(CC#N)nc34)N(C)C(=O)[C@H]2CN1C(c1ccc(F)cc1)c1ccc(F)cc1` [Example 6, 2-((8aR,11R)-10-(Bis(4-fluorophenyl)methyl)-5,7,11-trimethyl-6,8-dioxo-5,7,8,8a,9,10,11,12-octahydro-6H-pyrazino[1′,2′:4,5]pyrazino[2,3-c][1,5]naphthyridin-2-yl)acetonitrile]: the IC50 at DGKα and on DGKζ was at most 40 nM throughout.

For `Cc1ccc2c(n1)c1c(c(=O)n2C)N(C)C(=O)[C@H]2CN(C(c3ccc(F)cc3)c3ccc(F)cc3)[C@H](C)CN12` [Example 5, (8aR,11R)-10-(Bis(4-fluorophenyl)methyl)-2,5,7,11-tetramethyl-5,7,9,10,11,12-hexahydro-6H-pyrazino[1′,2′:4,5]pyrazino[2,3-c][1,5]naphthyridine-6,8(8aH)-dione], the concentration for half-maximal inhibition (IC50) at DGKα is at most 40 nM; on DGKζ, above 2000 nM.
